Reference: ChEMBL document CHEMBL1201862, “PubChem BioAssay data set” (2004)
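Tested at 5 concentrations; 48 h exposure; 96-well plates; endpoints linearly interpolated, else capped at highest concentration. The concentration for 50% growth inhibition is given as GI50.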 Active and inactive are the calls of the source. Rule as the data show it: active = GI50 up to about 1.1 µM and inactive = higher.

How the values were obtained:
Assay in all cases: growth of human tumour cells (NCI), 48 h
[1] = tested on: OVCAR-4
[2] = tested on: UACC-257
[3] = tested on: RPMI-8226
[4] = tested on: KM12
[5] = tested on: SR
[6] = tested on: SF-295
[7] = tested on: CAKI-1
[8] = tested on: SNB-75
[9] = tested on: SF-539
[10] = tested on: DU-145
[11] = tested on: OVCAR-5
[12] = tested on: M14
[13] = tested on: SK-MEL-28
[14] = tested on: K562
[15] = tested on: COLO 205
[16] = tested on: SNB-19
[17] = tested on: CCRF-CEM
[18] = tested on: MOLT-4
[19] = tested on: MCF7

Measured: GI50

O=c1ccc2cc(O)c(O)cc2o1 [ESCULETIN]
inactive: [1] 97.3 µM | [2] > 100 µM | [3] > 100 µM | [4] > 100 µM | [5] > 100 µM | [6] > 100 µM | [7] > 100 µM | [8] > 100 µM | [9] > 100 µM | [10] > 100 µM | [11] > 100 µM | [12] > 100 µM | [13] > 100 µM | [14] > 100 µM | [15] > 100 µM | [16] > 100 µM | [17] > 100 µM | [18] > 100 µM | [19] > 100 µM

Cc1ccc(/N=N/C(=N\c2ccc(Cl)cc2)c2ccc(N(CCC#N)CCC#N)cc2)cc1
inactive: [1] 51.4 µM | [2] 12.4 µM | [3] > 100 µM | [4] 19.1 µM | [5] 22 µM | [6] 3.98 µM | [7] > 100 µM | [8] 60.3 µM | [9] 47.4 µM | [10] 37.7 µM | [11] > 100 µM | [12] 30.8 µM | [13] 85.5 µM | [14] > 100 µM | [15] 17.4 µM | [16] > 100 µM | [17] 21.6 µM | [18] > 100 µM | [19] 21.6 µM

COc1cc([C@@H]2c3cc4c(cc3[C@@H](/N=C/c3ccc(C(=O)O[C@H]5C[C@H]6OC[C@@]6(OC(C)=O)[C@H]6[C@H](OC(=O)c7ccccc7)[C@]7(O)C[C@H](OC(=O)[C@H](OC(=O)c8ccc(/C=N/[C@@H]9c%10cc%11c(cc%10[C@@H](c%10cc(OC)c(O)c(OC)c%10)[C@H]%10C(=O)OC[C@@H]%109)OCO%11)cc8)[C@@H](NC(=O)c8ccccc8)c8ccccc8)C(C)=C([C@@H](OC(C)=O)C(=O)[C@]56C)C7(C)C)cc3)C3COC(=O)C32)OCO4)cc(C)c1O (stereo partly specified)
inactive: [1] > 29.6 µM | [2] 26.2 µM | [3] > 50 µM | [4] 22.3 µM | [5] 8.02 µM | [6] 5.07 µM | [7] 12.8 µM | [8] 4.25 µM | [9] 7.23 µM | [10] 24.5 µM | [11] > 15.5 µM | [12] 6.49 µM | [13] > 18.1 µM | [14] 2.19 µM | [15] 19.6 µM | [16] 17.5 µM | [17] 30 µM | [18] 16.3 µM | [19] 7.6 µM

Nc1c2c(nc3ccccc13)-c1ccccc1NCCC2
inactive: [1] 47.3 µM | [2] 13.6 µM | [3] 20.2 µM | [4] 35.2 µM | [5] 17.9 µM | [6] 17.7 µM | [7] 30.8 µM | [8] 43.4 µM | [9] 21 µM | [10] 59.7 µM | [11] 35.6 µM | [12] 17.4 µM | [13] 18.2 µM | [14] 23.4 µM | [15] 16.8 µM | [16] 53 µM | [17] 26.4 µM | [18] 24.6 µM | [19] 34.2 µM
